Reference: patent publication US20240246933A1, “CRYSTALLINE FORM OF TRICYCLIC DERIVATIVE COMPOUND, METHOD FOR PREPARING SAME, AND PHARMACEUTICAL COMPOSITION COMPRISING SAME” (ONCONIC THERAPEUTICS INC., priority 2021, published 2024)
Where a name gives a salt, the structure may show the parent alone.

What was measured:
[1] = Measurement of solubility in water (shake-flask, UPLC); type: physicochemical
Experimental: Compounds are dissolved in DMSO and measured by UPLC, and then a calibration curve is drawn. The compounds saturated by the Shake-flask method are filtered and then measured by UPLC, and it is substituted into a calibration curve to calculate the concentration.

[2] = target: tankyrase-1 enzyme (Homo sapiens, UniProt O95271); test: biochemical
Chain of tankyrase-1 enzyme (O95271 1001-1327): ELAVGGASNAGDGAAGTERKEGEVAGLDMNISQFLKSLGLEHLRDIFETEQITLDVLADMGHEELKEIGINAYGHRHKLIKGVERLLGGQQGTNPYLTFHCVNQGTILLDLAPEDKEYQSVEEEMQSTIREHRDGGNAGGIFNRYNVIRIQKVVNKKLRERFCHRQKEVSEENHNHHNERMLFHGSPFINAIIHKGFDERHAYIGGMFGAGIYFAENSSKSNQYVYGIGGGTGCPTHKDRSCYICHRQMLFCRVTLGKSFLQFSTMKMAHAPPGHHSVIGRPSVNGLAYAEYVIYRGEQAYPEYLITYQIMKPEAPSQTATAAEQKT
Experimental: (§1) Histones were coated on a 96-well plate provided from BPS Bioscience's kit and left at 4 °C for 16 hours. […] After 1 hour, each well was washed 4 times with PBST, and streptavidin-linked peroxidase (Strep-HRP, 1:50 dilution) was added thereto to measure the amount of ribosylation by PARP enzyme, and reacted at 25° C. for 30 minutes. The plate was washed 4 times with PBST, and then HRP chemiluminescent substrate was finally added thereto and reacted. The amount of histone ribosylation formed by each enzyme was quantified using a Synergy™ H4 Hybrid Multi-Mode Microplate Reader (BioTek Instruments, Inc., US (A)).

[3] = target: PARP-1 enzyme (Homo sapiens, UniProt P09874); test: Inhibition test of poly (ADP-ribose) polymerase [PARP-1] enzyme (BPS Bioscience kit)
Chain of PARP-1 enzyme (P09874 whole entry): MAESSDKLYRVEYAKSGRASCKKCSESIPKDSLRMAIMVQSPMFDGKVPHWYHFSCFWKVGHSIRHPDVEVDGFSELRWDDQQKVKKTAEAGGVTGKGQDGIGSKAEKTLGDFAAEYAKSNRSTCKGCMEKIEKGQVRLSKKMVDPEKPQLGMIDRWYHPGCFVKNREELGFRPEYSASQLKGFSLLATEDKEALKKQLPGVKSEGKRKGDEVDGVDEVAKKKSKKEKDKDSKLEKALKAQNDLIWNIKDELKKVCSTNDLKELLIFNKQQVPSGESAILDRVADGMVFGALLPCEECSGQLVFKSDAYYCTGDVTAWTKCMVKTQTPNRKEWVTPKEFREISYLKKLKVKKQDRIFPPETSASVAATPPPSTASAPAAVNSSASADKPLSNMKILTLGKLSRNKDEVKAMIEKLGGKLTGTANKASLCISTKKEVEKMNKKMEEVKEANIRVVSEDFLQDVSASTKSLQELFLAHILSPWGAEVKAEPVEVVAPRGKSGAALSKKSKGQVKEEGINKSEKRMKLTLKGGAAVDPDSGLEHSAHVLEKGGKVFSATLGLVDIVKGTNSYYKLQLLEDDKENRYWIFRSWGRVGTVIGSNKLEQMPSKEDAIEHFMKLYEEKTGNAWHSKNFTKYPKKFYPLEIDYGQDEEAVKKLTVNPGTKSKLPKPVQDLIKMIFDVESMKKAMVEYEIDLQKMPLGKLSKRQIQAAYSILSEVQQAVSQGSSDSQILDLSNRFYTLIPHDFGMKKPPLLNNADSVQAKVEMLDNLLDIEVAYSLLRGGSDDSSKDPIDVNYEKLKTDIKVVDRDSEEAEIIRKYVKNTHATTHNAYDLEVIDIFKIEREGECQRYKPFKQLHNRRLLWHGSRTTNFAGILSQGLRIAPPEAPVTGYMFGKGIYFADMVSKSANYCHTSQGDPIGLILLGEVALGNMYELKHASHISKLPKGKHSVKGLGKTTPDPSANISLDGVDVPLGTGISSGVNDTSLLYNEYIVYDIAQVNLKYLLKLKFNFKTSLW
Experimental: Histones were coated on a 96-well plate provided from BPS Bioscience's kit and left at 4° C. for 16 hours. […] After 1 hour, each well was washed 4 times with PBST, and streptavidin-linked peroxidase (Strep-HRP, 1:50 dilution) was added thereto to measure the amount of ribosylation by PARP enzyme, and reacted at 25° C. for 30 minutes. The plate was washed 4 times with PBST, and then HRP chemiluminescent substrate was finally added thereto and reacted. The amount of histone ribosylation formed by each enzyme was quantified using a Synergy™ H4 Hybrid Multi-Mode Microplate Reader (BioTek Instruments, Inc., US (A)).

[4] = Measurement of solubility in various solvents; type: physicochemical; settings: 0.1 g of sample, 15 to 25° C., within 30 minutes, listed as Crystalline anhydride of citrate in Example 2
Experimental: Specifically, 0.1 g of sample was accurately weighed, put into each solvent, and shaken and mixed vigorously for 30 seconds every 5 minutes at 15 to 25° C., and the amount dissolved within 30 minutes was measured.

[5] = Purity and stability under accelerated and long-term storage conditions (HPLC); type: physicochemical; settings: for Purity under long-term storage conditions (area %) / Long-term storage conditions (related substances) (area %): 25±2° C., humidity 60±5%; for Purity under accelerated storage conditions (area %) / Accelerated storage conditions (related substances) (area %): 40±2° C., humidity 75±5%
Experimental: The purity and stability of the crystalline anhydride of the citrate prepared in Example 2 and the crystalline monohydrate of the citrate prepared in Example 3 according to the present invention were evaluated, and the results are shown in Tables 8 and 9 below.
In the tables below, stability tests were conducted under accelerated storage conditions of a temperature of 40±2° C. and humidity of 75±5%, and purity and stability tests were conducted under long-term storage conditions of a temperature of 25±2° C. and humidity of 60±5%. Experimental results were measured under the same conditions as in Experimental Example 1 using HPLC (product name: agilent 1290, manufacturer: Agilent).

[6] = Stability of the addition salt of Compound 1 (temperature, humidity, light; purity by HPLC); type: physicochemical
Experimental: The stability of crystals of the addition salt of Compound 1 prepared in the Examples and Comparative Examples above was confirmed, and the results are shown in Table 5 below.
Experiments according to temperature, humidity and light conditions were carried out by a method of confirming purity by HPLC after storage in a stability chamber under each condition.
Each sample was spread thinly in a Petri dish, and then the stability was evaluated after irradiation with UV light having a light intensity of 35 W to a total irradiation amount of 200 watts under conditions of 25° C. and 60% humidity using a photostability test chamber (CARON 6542-2).
Each sample was spread thinly in a Petri dish, and then the stability was evaluated after irradiation with visible light having a light intensity of 35 k Lux to a total irradiation amount of 1200 k lux under conditions of 25° C. and 60% humidity using a photostability test chamber (CARON 6542-2).

[7] = target: T1, tankyrase-2 enzyme (Homo sapiens, UniProt Q9H2K2); test: Inhibition test of tankyrase-2 enzyme (BPS Bioscience kit); type: biochemical; settings: tankyrase-2 enzyme 15 ng/well, 25° C. for 1 hour; read-out: IC50 (tankyrase-2 enzyme inhibitory activity)
T1 construct: purchased BPS Bioscience 80578
T1 sequence (Q9H2K2 849-1166): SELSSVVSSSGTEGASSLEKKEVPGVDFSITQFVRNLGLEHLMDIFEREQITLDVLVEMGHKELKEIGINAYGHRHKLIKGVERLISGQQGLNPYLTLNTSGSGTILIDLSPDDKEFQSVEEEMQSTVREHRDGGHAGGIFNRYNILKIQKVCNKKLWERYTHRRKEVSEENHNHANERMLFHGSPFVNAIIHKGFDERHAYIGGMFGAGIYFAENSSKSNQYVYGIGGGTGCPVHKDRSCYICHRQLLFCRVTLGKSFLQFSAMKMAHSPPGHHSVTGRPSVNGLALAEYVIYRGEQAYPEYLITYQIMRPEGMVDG
Experimental: as §1

[8] = 3 months, listed as Crystalline anhydride of citrate in Example 2
[9] = 6 months, listed as Crystalline anhydride of citrate in Example 2
[10] = initial, listed as Crystalline anhydride of citrate in Example 2

N#Cc1ccc(N2CCN(Cc3ccc4c5c(c(=O)[nH]c4c3)CCCN5)CC2)nc1 [Example 2, Citrate Anhydride of 6-{4-[(5-oxo-1,2,3,4,5,6-hexahydrobenzo[h][1,6]naphthyridin-8-yl)methyl]piperazine-1-yl}nicotinonitrile]
Solubility in water (in words) ([1]; compared to other salts): remarkably excellent solubility in water
Water solubility ([1]; water, shake-flask shaken for 24 hours, UPLC, listed as Crystalline anhydride of citrate of Compound 1): 1067 µM
IC50 [2]: 4.31 nM
IC50 [3]: 2.62 nM
Solubility (0.1 g/mL) ([4]; Aqueous HCl solution (pH 1.1)): ≤ 100 mL
Solubility (0.1 g/mL) ([4]; DMF): 8 mL
Solubility (0.1 g/mL) ([4]; EtOH): ≥ 1000 mL
Solubility (0.1 g/mL) ([4]; MeOH): ≥ 100 mL
Solubility (0.1 g/mL) ([4]; Water): ≤ 1000 mL
Purity under long-term storage conditions (area %) ([5]; 1 month): 99.64%
Purity under long-term storage conditions (area %) ([5]; 3 months): 99.66%
Long-term storage conditions (related substances) (area %) [5, 8]: 0.28%
Purity under long-term storage conditions (area %) ([5]; 6 months): 99.58%
Long-term storage conditions (related substances) (area %) [5, 9]: 0.29%
Long-term storage conditions (related substances) (area %) ([5]; 9 months): 0.31%
Purity under long-term storage conditions (area %) ([5]; 9 months): 99.67%
Long-term storage conditions (related substances) (area %) ([5]; 12 months): 0.29%
Purity under long-term storage conditions (area %) ([5]; 12 months): 99.72%
Long-term storage conditions (related substances) (area %) ([5]; 18 months): 0.33%
Purity under long-term storage conditions (area %) ([5]; 18 months): 99.73%
Long-term storage conditions (related substances) (area %) ([5]; 24 months): 0.34%
Purity under long-term storage conditions (area %) ([5]; 24 months): 99.74%
Long-term storage conditions (related substances) (area %) ([5]; 30 months): 0.34%
Long-term storage conditions (related substances) (area %) ([5]; 36 months): 0.30%
Purity under long-term storage conditions (area %) ([5]; 36 months): 99.73%
Purity under long-term storage conditions (area %) ([5]; initial): 99.66%
Long-term storage conditions (related substances) (area %) [5, 10]: 0.26%
Purity under accelerated storage conditions (area %) ([5]; 1 month): 99.64%
Purity under accelerated storage conditions (area %) ([5]; 3 months): 99.65%
Accelerated storage conditions (related substances) (area %) [5, 8]: 0.24%
Purity under accelerated storage conditions (area %) ([5]; 6 months): 99.54%
Accelerated storage conditions (related substances) (area %) [5, 9]: 0.28%
Purity under accelerated storage conditions (area %) ([5]; initial): 99.66%
Accelerated storage conditions (related substances) (area %) [5, 10]: 0.26%
Purity (%) ([6]; Humidity of 75%, 3 days): 97.81%
Purity (%) ([6]; Initial value): 97.97%
Purity (%) ([6]; Temperature of 40° C., humidity of 70%, 3 days): 97.79%
Purity (%) ([6]; Temperature of 50° C., 3 days): 97.86%
Purity (%) ([6]; UV 200 watt - dark): 98.38%
Purity (%) ([6]; UV 200 watt, 25° C. and 60% humidity): 96.94%
Purity (%) ([6]; Visible 1200k lux - dark): 98.39%
Purity (%) ([6]; Visible 1200k lux, 25° C. and 60% humidity): 96.73%
Stability in the temperature and humidity (in words) ([6]; temperature and humidity conditions of Table 5): stable
IC50 [7]: 1.06 nM
